Assay results taken from US20040077080A1, “Compositions and methods for induction of proteins involved in xenobiotic metabolism” (priority 2000, published 2004).
“Also recorded” adds a separate entry of the source.

Key:
[1] = test system: T1, CAR (hCAR) (Homo sapiens), Q14994-2; assay: cell_activity; details: Caco-2 luciferase, fold above no receptor
T1 sequence: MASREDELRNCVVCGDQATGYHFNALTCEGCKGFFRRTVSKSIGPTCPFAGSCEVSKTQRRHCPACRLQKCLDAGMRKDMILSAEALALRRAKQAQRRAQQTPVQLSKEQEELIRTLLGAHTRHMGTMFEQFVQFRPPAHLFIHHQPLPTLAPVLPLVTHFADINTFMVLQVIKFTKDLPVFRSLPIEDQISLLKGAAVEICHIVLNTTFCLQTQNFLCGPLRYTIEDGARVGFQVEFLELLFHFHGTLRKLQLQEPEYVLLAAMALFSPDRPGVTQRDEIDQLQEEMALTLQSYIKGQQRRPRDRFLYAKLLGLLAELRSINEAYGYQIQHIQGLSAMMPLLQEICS

[2] = test system: human CYP1A1 promoter (Ah receptor); assay: 101L cell luciferase assay (HepG2 with human CYP1A1 promoter-luciferase), 96-well; details: 101L cells; for fold increase in luciferase activity, dose response of known CYP1A1 inducers: benzanthracene and omeprazole maximum at 100 micromolar, TCDD at 2 nanomolar
Procedure: Cells were initially seeded in flasks containing media without G418. After an overnight incubation the cultures were changed into media containing G418 for antibiotic selection. After three to five days, cells were removed from flasks by trypsinization and replated on either a twenty-four-well plate at a density of 3.5×10^5 cells per well, or a ninety-six-well plate at a density of 7.5×10^4 cells per well, in DMEM media that was replaced with that containing 0.1% FBS and without G418 or indicator (phenol red). The next day, media containing 0.1% FBS and G418 was added to the cultures. […] For the antagonist experiments, cells were co-treated with a flavonoid and two nanomolar TCDD. All inducers were dissolved in DMSO and this reagent was added to control cells at 0.1%. The cells were treated with varous doses and times (six to eighteen hours). After treatment, the media containing the compound was removed by aspiration and replaced with one-hundred microliters per well of DMEM for direct analysis of luciferase activity. Experiments were performed on 101L cells from frozen stocks on the initial derivation and the passage number was limited to thirty.
Luciferase assays were performed as specified by the manufacturer (LucLite system, Packard Instrument, Meriden, Conn.). Activity was determined using a Packard LumiCount luminometer and results expressed as relative light units or fold increase above control (DMSO treated cells.

CYP1A1 mRNA [3] = assay: Northern blot of CYP1A1 mRNA in primary cultures of human hepatocytes (Example II); details: primary human hepatocytes
Procedure: Six well plates containing human hepatocytes were obtained from the Liver Tissue Procurement and Distribution System (LTPADS, University of Minnesota, Minneapolis, Minn.). […] All inducers were dissolved in DMSO and added to media at a 0.1% final concentration of this reagent. After treatment, media was removed and cells harvested for RNA isolation.
(§1) Total RNA from hepatocytes or HepG2 cells was isolated using Trizol™ reagent (Gibco BRL Products, Gaithersburg, Md.) and quantified by measuring absorbance at 260 nm; purity was assessed by determining the 260/280 nm ratio. […] A cDNA probe for human 18S RNA probe (Ambion, Austin Tex.) was used to normalize the amount of RNA loaded in each lane. […] Autoradiographs of Northern blots were quantified by densitometry using a Model GS-670 Imaging Densitometer equipped with Molecular Analysis/Mac version 1.1.1. Image Analysis software (BioRad laboratories, Hercules, Calif.) or by scaning autoradiograms with a ScanMaker II (Microtek) and digitized with Un-Scan-It software (Silk Scientific, Orem Utah). Exposure times used were in the linear range of the film, Kodak XAR-5.

[4] = test system: AhR (dioxin response elements); assay: in vitro; details: human, fold induction of luciferase activity above DMSO, DRE12-6 cells, 28 hours; TCDD 10 nanomoles per liter, omeprazole 25, 2-AAF 100, DMBA 20 micromoles per liter
Procedure: (§6) FIG. 25A: DRE12-6 cells were treated for 28 hours with the indicated concentrations of phytochemicals. FIG. 25B: DRE12-6 cells were treated with the indicated chemicals for 3 hours prior to co-treatment with 2,3,7,8-tetrachlorodibenzo-p-dioxin (TCDD) for 28 hours.
(§7) Chemical treatment was followed by cell lysis and luciferase measurement.
(§8) FIG. 26A: DRE12-6 cells were inoculated into a 96-well plate (2×10^4 cells per well) a day prior to treatment and treated for 28 hours with the indicated concentrations of the environmental contaminants (PAHs, PAH derivatives, PCBs, or pesticide derivatives). FIG. 26B: DRE12-6 cells were treated with the indicated chemicals for 3 hours prior to co-treatment with 2,3,7,8-tetrachlorodibenzo-p-dioxin (TCDD) for 28 hours.
(§9) The luciferase-SV40 promoter vector, with the three copies of the dioxin response elements, was transfected into HepG2 cells, which were put under neomycin selection to yield the stable cell line DRE12-6, for detection of AhR-dependent transactivation.
(§10) Luciferase assay: Luciferase assays using the LucLite system (Packard Instrument Co., Meriden, Conn.) were performed according to the manufacturer's instructions. Results were expressed as relative light units or fold induction, relative to DMSO-treated control cells. The data represent the mean±standard deviation of experiments performed in duplicate.

[5] = test system: PXR / mdr1(dr4) response element; assay: Hep-PXR/Pgp-Luc stable cell luciferase assay
Procedure: (§2) FIG. 35 depicts dose-response behavior to various PXR activators in stable cell lines overexpressing PXR and harboring DR4 response element. FIG. 35A: Results are shown for the stable cell line Hep-PXR/PgpLuc. FIG. 35B: Results are shown for the stable cell line Caco-PXR/PgpLuc.
(§3) Cells were exposed to the test compounds for 48 hours at the concentrations indicated.
FIG. 36 depicts the effect of environmental and botanical chemicals on luciferase activity in the stable cell line Hep-PXR/PgpLuc. Cells were inoculated into 96-well plates at a density of 2×10^4 cells per well. After overnight recovery, cells were treated with the test compounds at the concentrations indicated for 48 hours.
(§4) Establishment of stable transformants containing both PXR and reporter plasmid and development of high throughput bioassay for PXR-dependent transactivation: The stable transformants Hep-PXR/mdr1(dr4)-Luc and Caco-PXR/mdr1(dr4)-Luc cell lines were generated from the parental cell lines HepG-PXR and Caco-PXR, respectively, according to the following procedure. The parental cell lines HepG-PXR and Caco-PXR, which overexpress PXR, were stably transfected with the luciferase reporter plasmid mdr1(dr4)-Luc. The transfected cells were cultured in DMEM (HepG-PXR cells) or in IMEM (Caco-PXR cells), both media supplemented with 10% fetal bovine serum and neomycin (700 micrograms per milliliter).
(§5) For the induction assay, stable transformants were seeded in 96-wells plates at a density of 1×10^4 cells per well and allowed to recover overnight. Plates were treated with test compounds at varying concentrations, using 3 replicates per dose. After 48 hours of exposure to the test compound, cells were washed with phosphate buffered saline, lysis buffer was applied to the wells, and luciferase substrate added. Following 10 minutes for light adaptation, luminescence was monitored according to the manufacturer's instructions (Packard kit, Biomed).

[6] = test system: PXR / mdr1(dr4) response element; assay: Caco-PXR/Pgp-Luc stable cell luciferase assay
Procedure: as §2, §3, §4, §5

CYP3A4 mRNA (PXR) = assay: Northern blot of CYP3A4 in stable cells overexpressing PXR (Hepg-PXR); details: stable cells that overexpress PXR
Procedure: FIG. 29 depicts CYP3A4 gene regulation in response to PXR ligands by the stably transfected cell line Hepg-PXR (HepG2 cells overexpressing PXR). Total RNA was prepared from Hepg-PXR cells chemically treated as indicated. The RNA blot was hybridized with ^32P-labeled cDNA for CYP3A4 (upper panel).
Northern blot analysis. Total RNA from primary human hepatocytes and from a PXR stable cell line was isolated using Trizol reagent (Invitrogen, Carlsbad, Calif.) and quantified by spectrophotometric analysis at 260 nanometers. […] The blot was subsequently washed and re-hybridized to an 18S rRNA probe to verify that equal amounts of total RNA had been applied to each lane.

CYP1A1 mRNA [7] = assay: Northern blot of CYP1A1 mRNA in HepG2 cells; details: HepG2 cells; mean of two determinations
Procedure: HepG2 cells were obtained from American Type Culture Collection (ATCC). Cells were grown in DMEM (Gibco/BRL). Twenty-four hours after cells were plated and grown to confluency, they were treated with one of the bioflavonoids, TCDD, or beta-naphthoflavone (Sigma). All inducers were dissolved in DMSO and this solvent was added to control cells at 0.1%.
as §1

CYP1A1 mRNA [8] = assay: Northern blot of CYP1A1 in primary human hepatocytes (Example V); details: primary hepatocytes, 24 hours; TCDD 10 nanomoles per liter, 3-MC 0.5 nanomoles per liter, omeprazole 100, chrysin 25, curcumin 50, resveratrol 25, DMBA 20, 2-AAF 100 micromoles per liter
Excerpt: The isolated RNA was subjected to Northern blot analysis.

hPXR / CYP3A4 enhancer = details: colony 1F; 72 hours; omeprazole 100 micromolar, PCN 50 micromolar, TCDD 1 micromolar
Excerpt: (§11) HepG2 cells were harvested at approximately 50% confluency and seeded in six well dishes at 5×10^5 cells per well in DMEM containing 10% fetal bovine serum (FBS). […] The control cells were those that received plasmid DNA containing pGL3 promoter and pIRES(neo) or pGL3promoter and hPXR in pIRES(neo). After sixteen hours of exposure to the precipitated DNA, the culture medium was removed, cells washed twice with DMEM, and fresh media containing 10% FBS added. After an additional twenty four hours, media was replaced with that containing 400 micrograms per milliliter of G418. Media was changed every two days for three weeks until small colonies were visible. Single colonies were selected and transferred to twenty four well Costar plates (VWR, Westchester, Pa.). Each of the twenty four wells contained the same media and cells were grown to confluency with media changes every three days. Confluent wells were trypsinized and cells transferred into six well plates and upon reaching confluency therein, cells were further transferred to T75 flasks.
(§12) Luciferase assays were performed as specified by the manufacture (LucLite system, Packard Instrument, Meriden, Conn.). Activity was determined using the Packard LumniCount luminometer and results expressed as relative light units or fold increase above control (DMSO treated cells).
(§13) Cells were seeded in T75 flasks and grown to confluency. […]

[9] = test system: AhR (dioxin response elements); assay: DRE12-6 luciferase assay (HepG2 with dioxin response elements); details: DRE12-6 cells, 28 hours
Procedure: as §6, §7, §8, §9, §10

CYP3A4 enhancer (PXRE) = assay: Luciferase reporter assay, HepG2 cells stably transformed with CYP3A4 enhancer (colony 13); details: 72 hours, omeprazole 100, clotrimazole 10, RU486 10, PCN 50, TCDD 1 micromolar
Excerpt: as §11, §12, §13

CYP2C19 (hCAR) = assay: CYP2C19 induction in HepG2 cell lines stably transfected with hCAR
CYP3A4 mRNA [10] = details: human, hepatocytes
Procedure: FIG. 13 depicts the effect of various CYP3A4 inducers on CYP3A4 expression in human hepatocytes. […] Total RNA (ten micrograms) was subjected to northern blot analysis and developed with a specific cDNA probe to CYP3A4 as described in the Examples.
Human hepatocytes were treated with various CYP3A4 inducers for forty eight hours, harvested, and RNA and cell homogenates isolated.

CYP3A4 mRNA [11] = details: human, hepatocytes; remark: listed apart in the source
Procedure: FIG. 28B: Human primary hepatocytes were exposed for 48 hours to commercial health supplements including grapeseed, garlic, kava-kava, and ginseng.
Total RNA was prepared from the treated cells, subjected to electrophoresis on a 1% formaldehyde gel, and transferred onto a nylon membrane.

[12] = test system: PXR / CYP3A4 response elements; assay: DPX2 (Hepg-hPXR/3A4-Luc) luciferase assay; details: DPX2 cells, kava-kava 100 micrograms per milliliter, chrysin 25 micromoles per liter
Procedure: Compounds tested included known PXR ligands and conventional drugs (FIG. 30A), environmental contaminants (FIG. 30B), and herbal supplements (FIG. 30C). DPX2 cells were cultured with DMEM supplemented with 10% fetal bovine serum and neomycin. Cells were inoculated into 96-well plate at a density of 1×10^4 cells per well the day before treatment.
2. […] In addition, a distal enhancer module, XREM, was amplified by PCR using the sense primer
The resulting amplified XREM fragment was ligated upstream of PXRE containing a 3A4 promoter, into a luciferase vector.
A neomycin resistance gene was generated by PCR amplification using the pcDNA3.1 plasmid (Invitrogen, Carlsbad, Calif.), which encodes a neomycin resistant gene, as a DNA template. The sense primer had the sequence […] Amplification was followed by SalI digestion of the PCR product, and the resulting fragment ligated to the SalI-digested PGL3-promoter plasmid, which contains luciferase as a reporter gene. […] The CYP3A4 cell line DPX2 (Hepg-hPXR/3A4-Luc) was established by double transfection with the PXR expression plasmid and the luciferase plasmid containing CYP3A4 PXR response element under selection with both neomycin and hygromycin.

[13] = biological target: CAR/RXR heterodimer (hCAR/hRXRa) (Homo sapiens, UniProt Q14994-2;P19793 Q14994-2:1-348,P19793:1-462); assay: EMSA; details: tags: TNT coupled transcription/translation (Promega); label: 32P
Sequence of CAR/RXR heterodimer (hCAR/hRXRa) (P19793 whole entry, one chain of several): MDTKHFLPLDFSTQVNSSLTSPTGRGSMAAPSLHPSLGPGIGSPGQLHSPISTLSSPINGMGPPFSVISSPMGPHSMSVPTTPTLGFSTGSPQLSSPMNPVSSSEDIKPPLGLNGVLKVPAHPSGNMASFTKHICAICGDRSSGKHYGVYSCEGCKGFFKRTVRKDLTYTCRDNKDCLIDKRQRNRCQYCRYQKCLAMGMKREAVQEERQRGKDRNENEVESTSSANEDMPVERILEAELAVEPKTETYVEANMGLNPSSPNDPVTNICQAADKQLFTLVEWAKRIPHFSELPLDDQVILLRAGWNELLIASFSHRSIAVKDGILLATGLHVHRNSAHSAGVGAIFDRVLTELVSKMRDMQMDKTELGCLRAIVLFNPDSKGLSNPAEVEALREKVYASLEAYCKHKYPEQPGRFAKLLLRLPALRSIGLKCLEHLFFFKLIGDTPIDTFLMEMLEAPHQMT

[14] = TCDD 10 nanomoles per liter, omeprazole 25, 2-AAF 100, DMBA 20 micromoles per liter

Q: With CYP2B6 PBREM reporter as the molecule, how does the activity [1] read?
A: 6.16 fold

Q: What does the source list for `c1ccc2cc3c(ccc4ccccc43)cc2c1` [benzanthracene]?
A: maximum CYP1A1 mediated luciferase activity ([2]; 96-well plate format, 50 micromolar benzanthracene): 33 fold; fold increase in luciferase activity, dose response of known CYP1A1 inducers [2]: twelve to thirty-five; CYP1A1 mRNA level Subject A (%), normalized to TCDD induction (CYP1A1 mRNA [3]; 24 hours): 50%; CYP1A1 mRNA level Subject B (%), normalized to TCDD induction (CYP1A1 mRNA [3]; 24 hours): 50%; CYP1A1 mRNA level Subject C (%), normalized to benzanthracene induction (CYP1A1 mRNA [3]; Subject C, 24 hours): 100%; CYP1A1 mRNA level Subject D (%), normalized to TCDD induction (CYP1A1 mRNA [3]; 24 hours): 52%; CYP1A1 mRNA, % of that observed with TCDD, all subjects (CYP1A1 mRNA [3]; 100 micromolar benzanthracene): 50%; fold induction [4]: 28.7 ± 1.65

Q: With `CC[C@H](C)C(=O)O[C@H]1CCC=C2C=C[C@H](C)[C@H](CC[C@@H]3C[C@@H](O)CC(=O)O3)[C@H]21` [mevastatin] as the molecule, how does the “dose dependence of luciferase induction (in words)” value [5] read?
A: dose-dependent luciferase induction

Q: And the “dose dependence of luciferase induction (in words)” value [6]?
A: dose-dependent luciferase induction

Q: And the “strength of luciferase induction (in words)” value [6]?
A: strongly induce

Q: What about the “CYP3A4 induction by Northern blot (in words)” value (CYP3A4 mRNA (PXR)) of the same molecule?
A: efficiently activated

Q: What does the source list for `Clc1cc2c(cc1Cl)Oc1cc(Cl)c(Cl)cc1O2` [TCDD]?
A: fold increase in luciferase activity, dose response of known CYP1A1 inducers [2]: twelve to thirty-five; also recorded: twenty-two; HepG2 CYP1A1 mRNA (%), normalized to TCDD induction (CYP1A1 mRNA [7]): 100%; CYP1A1 mRNA level Subject A (%), normalized to TCDD induction (CYP1A1 mRNA [3]; 24 hours): 100%; CYP1A1 mRNA level Subject B (%), normalized to TCDD induction (CYP1A1 mRNA [3]; 24 hours): 100%; CYP1A1 mRNA level Subject D (%), normalized to TCDD induction (CYP1A1 mRNA [3]; 24 hours): 100%; CYP1A1 induction by Northern blot (in words) (CYP1A1 mRNA [8]): maximum induction; fold increase in luciferase activity above DMSO, single concentrations (FIG. 14) (hPXR / CYP3A4 enhancer): less than two; AhR-mediated luciferase induction (in words) [9]: dose-dependent increase; fold induction of luciferase activity above DMSO [9, 14]: 12.99±0.64 fold; fold induction at 28 h ([9]; human, fold induction of luciferase activity above DMSO, TCDD 10 nanomoles per liter, omeprazole 25, 2-AAF 100, DMBA 20 micromoles per liter): 20; fold increase in luciferase activity above DMSO, single concentrations (FIG. 15) (CYP3A4 enhancer (PXRE)): less than one

Q: For `Clc1ccc(-c2nc3sccn3c2C=NOCc2ccc(Cl)c(Cl)c2)cc1` [CITCO, 6-(4-chlorophenyl)imidazo[2,1-b][1,3]thiazole-5-carbaldehyde-O-(3,4-dichlorbenzyl)oxime], which “induction of HepG2 CYP2C19 (in words)” value (CYP2C19 (hCAR)) is on record?
A: induce HepG2 CYP2C19

Q: What does the source list for `CCC1(c2ccccc2)C(=O)NC(=O)NC1=O` [phenobarbital]?
A: fold increase in CYP3A4 mRNA (CYP3A4 mRNA [10]): 3.8 fold; CYP3A4 mRNA by Northern blot (in words) (CYP3A4 mRNA [11]): increased CYP3A4 gene expression; induction of HepG2 CYP2C19 (in words) (CYP2C19 (hCAR)): induce HepG2 CYP2C19

Q: Which “CYP1A1 induction by Northern blot (in words)” value (CYP1A1 mRNA [8]) does the source give for `CC(=O)Nc1ccc2c(c1)Cc1ccccc1-2` [2-AAF, 2-acetylaminofluorene] here?
A: increased CYP1A1 expression slightly

Q: And the “fold induction of luciferase activity above DMSO” value ([12]; 48 hours)?
A: 24.7 fold

Q: And the fold induction at 48 h ([12]; human, fold induction of luciferase activity above DMSO)?
A: 24.8

Q: What about the “strength of luciferase induction (in words)” value ([5]; Hep-PXR/PgpLuc cells, 48 hours, omeprazole 100 micromoles per liter versus rifampicin 10 micromoles per liter) of the same molecule?
A: strongly induced

Q: And the “fold induction of luciferase activity above DMSO” value [9, 14]?
A: 10.21±0.36 fold

Q: What about the “fold induction of luciferase activity above DMSO” value ([9]; TCDD 10 nanomoles per liter, omeprazole 25, 2-AAF 100, DMBA 20 micromoles per liter, listed as 2-acetylaminofluorene) of the same molecule?
A: 4.8 fold

B1: CYP2C19 F4 fragment (dsDNA)
DNA 1: AACCAAACTCTTCTGACCCCCAATCT
DNA 2: AGATTGGGGGTCAGAAGAGTTTGGTT
Q: Does B1 bind [13]?
A: binds
